US12357598B2, “Treatment of neurodevelopmental disorders” (THE REGENTS OF THE UNIVERSITY OF CALIFORNIA, priority 2018, dated 2025)

Test system: ddY mice
Assay: Oxylipin analysis of plasma and brain regions of juvenile offspring after maternal glyphosate exposure
Assay type: in vivo, mouse
Settings: juvenile offspring (P28), maternal 0.095% glyphosate
From the text: Collection of blood and brain samples and oxylipin analysis. Water or 0.095% glyphosate was given to pregnant mice from E5 to P21, as described above. The male offspring were separated from their mothers at weaning (P21). At juvenile (P28) stage, mice were deeply anesthetized with isoflurane and plasma was collected. Subsequently, brains were removed from the skulls. For Western blot analysis, brain regions such as prefrontal cortex (PFC), hippocampus, and striatum, were dissected from brain on ice. The samples were stored at −80° C. before assay. For oxylipin analysis, plasma was collected after isoflurane anesthesia at juvenile (P28) stage. Subsequently, PFC, hippocampus, and striatum were dissected from brain on ice, and the samples were stored at −80° C. before assay. Measurement of eicosanoids in the plasma and brain regions was performed at UC Davis using the previous method (4).

O=C(O)CNCP(=O)(O)O [glyphosate]
4,5-DiHDPE level (PFC): 1.083 ± 0.242 pmol/g
5(6)-EpETrE level (PFC): 3862.881 ± 1353.639 pmol/g
5,6-DiHETrE level (PFC): 0.699 ± 0.113 pmol/g
5-HEPE level (PFC): 1.760 ± 0.234 pmol/g
5-HETE level (PFC): 18.560 ± 1.797 pmol/g
5-oxo-ETE level (PFC): 142.497 ± 16.459 pmol/g
6-keto-PGF1a level (PFC): 88.691 ± 7.208 pmol/g
7(8)-EpDPE level (PFC): 3640.707 ± 1175.101 pmol/g
8(9)-EpETE level (PFC): 1.992 ± 0.638 pmol/g
8(9)-EpETrE alt level (PFC): 447.323 ± 148.765 pmol/g
8(9)-EpETrE level (PFC): 12713.4 ± 6124.0 pmol/g
8-HEPE level (PFC): 0.959 ± 0.080 pmol/g
8-HETE level (PFC): 7.904 ± 0.840 pmol/g
9(10)-EpOME level (PFC): 57.775 ± 18.915 pmol/g
9,10,13-TriHOME level (PFC): 31.772 ± 4.440 pmol/g
9,12,13-TriHOME level (PFC): 52.749 ± 6.979 pmol/g
9-HETE level (PFC): 1.826 ± 0.587 pmol/g
9-HODE level (PFC): 32.184 ± 2.752 pmol/g
10(11)-EpDPE level (PFC): 270.138 ± 86.641 pmol/g
11(12)-EpETE level (PFC): 2.775 ± 0.733 pmol/g
11(12)-EpETrE level (PFC): 1128.684 ± 354.042 pmol/g
11,12-,15-TriHETrE level (PFC): 27.925 ± 2.262 pmol/g
11,12-DiHETrE level (PFC): 1.383 ± 0.124 pmol/g
11-HETE level (PFC): 275.604 ± 19.707 pmol/g
12(13)-EpOME level (PFC): 67.240 ± 21.629 pmol/g
12-HEPE level (PFC): 6.850 ± 1.105 pmol/g
12-HETE level (PFC): 448.365 ± 69.003 pmol/g
12-oxo-ETE level (PFC): 2140.116 ± 142.081 pmol/g
13(14)-EpDPE level (PFC): 190.175 ± 59.161 pmol/g
13,14-DiHDPE level (PFC): 0.851 ± 0.076 pmol/g
13-HODE level (PFC): 45.239 ± 3.261 pmol/g
14(15)-EpETE level (PFC): 1.633 ± 0.487 pmol/g
14(15)-EpETrE level (PFC): 1037.632 ± 291.994 pmol/g
14,15-DiHETrE level (PFC): 2.498 ± 0.243 pmol/g
15(16)-EpODE level (PFC): 0.500 ± 0.121 pmol/g
15(S)-HETrE level (PFC): 11.900 ± 1.029 pmol/g
15-HETE level (PFC): 313.016 ± 24.240 pmol/g
15-oxo-ETE level (PFC): 10.104 ± 1.289 pmol/g
16(17)-EpDPE level (PFC): 195.454 ± 58.684 pmol/g
16,17-DiHDPE level (PFC): 1.154 ± 0.110 pmol/g
17(18)-EpETE level (PFC): 3.729 ± 1.017 pmol/g
17-HDoHE level (PFC): 6200.527 ± 739.211 pmol/g
19(20)-EpDPE level (PFC): 353.450 ± 99.156 pmol/g
19,20-DiHDPE level (PFC): 7.491 ± 0.703 pmol/g
EKODE level (PFC): 12.663 ± 1.143 pmol/g
LTB3 level (PFC): 53.423 ± 26.072 pmol/g
PGD2 level (PFC): 439.532 ± 37.011 pmol/g
PGE2 level (PFC): 137.389 ± 14.051 pmol/g
PGF2a level (PFC): 431.431 ± 34.510 pmol/g
TXB2 level (PFC): 246.160 ± 16.777 pmol/g
4,5-DiHDPE level (hippocampus): 1.572 ± 0.704 pmol/mL
5(6)-EpETrE level (hippocampus): 917.184 ± 134.826 pmol/mL
5,6-DiHETrE level (hippocampus): 0.470 ± 0.051 pmol/mL
5-HEPE level (hippocampus): 2.917 ± 0.708 pmol/mL
5-HETE level (hippocampus): 16.705 ± 0.992 pmol/mL
5-oxo-ETE level (hippocampus): 94.461 ± 9.488 pmol/mL
6-keto-PGF1a level (hippocampus): 113.103 ± 15.509 pmol/mL
7(8)-EpDPE level (hippocampus): 460.824 ± 81.977 pmol/mL
8(9)-EpETE level (hippocampus): 3.435 ± 0.784 pmol/mL
8(9)-EpETrE alt level (hippocampus): 89.694 ± 12.609 pmol/mL
8(9)-EpETrE level (hippocampus): 971.2 ± 484.7 pmol/mL
8-HEPE level (hippocampus): 1.415 ± 0.182 pmol/mL
8-HETE level (hippocampus): 5.383 ± 0.796 pmol/mL
9(10)-EpOME level (hippocampus): 9.131 ± 1.032 pmol/mL
9,10,13-TriHOME level (hippocampus): 29.123 ± 5.450 pmol/mL
9,12,13-TriHOME level (hippocampus): 51.599 ± 10.194 pmol/mL
9-HETE level (hippocampus): 2.073 ± 0.532 pmol/mL
9-HODE level (hippocampus): 31.282 ± 6.681 pmol/mL
10(11)-EpDPE level (hippocampus): 40.179 ± 5.185 pmol/mL
11(12)-EpETE level (hippocampus): 1.254 ± 0.537 pmol/mL
11(12)-EpETrE level (hippocampus): 254.371 ± 33.701 pmol/mL
11,12-,15-TriHETrE level (hippocampus): 20.278 ± 1.789 pmol/mL
11,12-DiHETrE level (hippocampus): 0.914 ± 0.053 pmol/mL
11-HETE level (hippocampus): 261.315 ± 27.149 pmol/mL
12(13)-EpOME level (hippocampus): 11.355 ± 1.474 pmol/mL
12-HEPE level (hippocampus): 9.094 ± 3.984 pmol/mL
12-HETE level (hippocampus): 131.250 ± 40.185 pmol/mL
12-oxo-ETE level (hippocampus): 1245.436 ± 206.406 pmol/mL
13(14)-EpDPE level (hippocampus): 27.748 ± 3.955 pmol/mL
13,14-DiHDPE level (hippocampus): 0.516 ± 0.089 pmol/mL
13-HODE level (hippocampus): 54.648 ± 8.929 pmol/mL
14(15)-EpETE level (hippocampus): 0.712 ± 0.184 pmol/mL
14(15)-EpETrE level (hippocampus): 241.703 ± 26.592 pmol/mL
14,15-DiHETrE level (hippocampus): 1.183 ± 0.095 pmol/mL
15(16)-EpODE level (hippocampus): 2.750 ± 0.907 pmol/mL
15(S)-HETrE level (hippocampus): 7.994 ± 1.430 pmol/mL
15-HETE level (hippocampus): 263.402 ± 29.963 pmol/mL
15-oxo-ETE level (hippocampus): 8.232 ± 0.652 pmol/mL
16(17)-EpDPE level (hippocampus): 29.112 ± 4.286 pmol/mL
16,17-DiHDPE level (hippocampus): 0.675 ± 0.093 pmol/mL
17(18)-EpETE level (hippocampus): 1.592 ± 0.499 pmol/mL
17-HDoHE level (hippocampus): 5997.276 ± 762.508 pmol/mL
19(20)-EpDPE level (hippocampus): 55.856 ± 8.656 pmol/mL
19,20-DiHDPE level (hippocampus): 5.359 ± 0.322 pmol/mL
EKODE level (hippocampus): 11.362 ± 1.014 pmol/mL
LTB3 level (hippocampus): 13.669 pmol/mL
PGD2 level (hippocampus): 349.020 ± 34.288 pmol/mL
PGE2 level (hippocampus): 68.947 ± 7.203 pmol/mL
PGF2a level (hippocampus): 314.752 ± 30.178 pmol/mL
TXB2 level (hippocampus): 198.203 ± 24.835 pmol/mL
